Like-named read-outs stand apart in the source and are kept apart here.
Assays:
[1] = target: T1, 5-HT2A receptor (Rattus norvegicus, UniProt P14842); assay: Competitive 5-HT2A binding assay with [3H]ketanserin, rat frontal cortex membranes; details: 1 nM [3H]ketanserin
T1 construct: Brains were rapidly removed and placed on ice; from tissue; host or cells: Sprague–Dawley rat frontal cortex membranes
Experimental: (§1) Sprague–Dawley rats were sacrificed by isoflurane overdose. Brains were rapidly removed and placed on ice. Hippocampi (for 5-HT1A assays) and frontal cortices (for 5-HT2A assays) were dissected on a Petri dish. The tissue from 10 rats was homogenized in 30 vol. homogenization buffer (50 mM Tris-HCl, […], 1 mM EDTA, 1 mM dithiothreitol) with a hand-held Teflon-glass homogenizer. The homogenate was centrifuged at 48,000× g at 4 °C for 15 min. The pellet was suspended and homogenized in homogenization buffer and incubated for 10 min at 36 °C. The centrifugation and suspension steps were repeated twice. The final pellet was homogenized in 5 vol. 50 mM Tris-HCl, pH = 7.4 buffer and stored at −80 °C for not more than 6 months.
(§2) Non-specific binding was determined with 10 μM serotonin in both assays. The final DMSO concentration in the assay was 5%. After incubation, the reaction mixture was deposited with the FilterMate-96 Harvester (Perkin Elmer, Waltham, MA, USA) onto Unifilter® GF/C plates (Perkin Elmer, Waltham, MA, USA) presoaked in 0.4% PEI for 1h. Each well was washed with 2 mL of 50 mM Tris-HCl (pH 7.4) buffer to separate bound ligands from free ones. Plates were left to dry overnight. Then, 35 µL of Microscint-20 scintillation fluid (Perkin Elmer, Waltham, MA, USA) was added to each filter well and left to equilibrate for 2 h. Filter-bound radioactivity was counted in a MicroBeta^2 LumiJet scintillation counter (Perkin Elmer, Waltham, MA, USA). Binding curves were fitted with one-site non-linear regression. Binding affinity (pKi ± SEM and Ki ± 95% confidence intervals) for each compound was calculated from […] values with the Cheng-Prusoff equation from two separate experiments.

[2] = target: T2, 5-HT1A receptor (Rattus norvegicus, UniProt P19327); assay: Competitive 5-HT1A binding assay with [3H]8-OH-DPAT, rat hippocampal membranes; details: 1 nM [3H]8-OH-DPAT
T2 construct: Brains were rapidly removed and placed on ice; from tissue; host or cells: Sprague–Dawley rat hippocampus membranes
T2 sequence (P19327 1-422): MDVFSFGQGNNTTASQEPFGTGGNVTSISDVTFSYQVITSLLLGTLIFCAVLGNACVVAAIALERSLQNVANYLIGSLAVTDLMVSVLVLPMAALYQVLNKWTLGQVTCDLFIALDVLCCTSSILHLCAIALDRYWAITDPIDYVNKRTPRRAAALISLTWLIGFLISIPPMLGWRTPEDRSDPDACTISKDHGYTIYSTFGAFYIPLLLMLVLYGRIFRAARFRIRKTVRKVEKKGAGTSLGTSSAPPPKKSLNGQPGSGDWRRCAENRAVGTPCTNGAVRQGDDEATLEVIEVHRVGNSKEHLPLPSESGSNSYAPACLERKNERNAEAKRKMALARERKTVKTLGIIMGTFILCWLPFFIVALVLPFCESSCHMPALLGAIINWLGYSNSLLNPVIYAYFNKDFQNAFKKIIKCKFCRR
Experimental: as §1, §2

[3] = target: T2, 5-HT1A receptor; assay: 5-HT1A receptor activation in the [35S]GTP-γ-S assay (agonist and antagonist mode); assay type: biochemical; details: for IC50: read-out: 5-HT1A Receptor Inhibition IC50 (nM, 95% CI); for agonist or antagonist properties at the 5-HT1A receptor: result in words; for Emax / EC50: agonist mode; for Emax: efficacy ± SEM; for EC50: rat hippocampal membranes
Experimental: as §1, with “The pellet was suspended and homogenized in homogenization buffer and incubated for 10 min at 36 °C.” left out
Non-specific binding was determined with 100 µM of unlabeled GTPγS. The compounds were tested in both the agonist and antagonist mode. […] The final DMSO concentration in the assay was 5%. The reaction mixture was incubated for 90 min at 30 °C on an orbital shaker set at 250 rpm. The reaction mixture was then deposited under vacuum with the FilterMate Harvester® (Perkin Elmer, Waltham, MA, USA) onto Unifilter® GF/C Plates (Perkin Elmer, Waltham, MA, USA) presoaked with wash buffer (50 mM Tris-HCl, pH = 7.4). The wells were then rapidly washed with 2 mL of wash buffer. The filter plates were dried overnight at room temperature. Once completely dry, 35 µL of MicroScint PS (Perkin Elmer, Waltham, MA, USA) scintillation fluid was added to each well. Radioactivity was counted in a MicroBeta^2 LumiJet scintillation counter (Perkin Elmer, Waltham, MA, USA). […] The curves were fitted with the three-parameter non-linear regression model.

[4] = 95% CI in brackets, read-out: 5-HT2A Affinity Ki (nM, 95% CI)
[5] = 95% CI in brackets, read-out: 5-HT1A Affinity Ki (nM, 95% CI)
[6] = ± SEM, read-out: 5-HT2A Affinity pKi (converted)
[7] = 95% CI in brackets, read-out: 5-HT1A Receptor Stimulation EC50 (nM, 95% CI)
[8] = ± SEM, two experiments, read-out: 5-HT1A Affinity pKi (nM ± SEM) (converted)

T1 sequence (P14842 whole entry): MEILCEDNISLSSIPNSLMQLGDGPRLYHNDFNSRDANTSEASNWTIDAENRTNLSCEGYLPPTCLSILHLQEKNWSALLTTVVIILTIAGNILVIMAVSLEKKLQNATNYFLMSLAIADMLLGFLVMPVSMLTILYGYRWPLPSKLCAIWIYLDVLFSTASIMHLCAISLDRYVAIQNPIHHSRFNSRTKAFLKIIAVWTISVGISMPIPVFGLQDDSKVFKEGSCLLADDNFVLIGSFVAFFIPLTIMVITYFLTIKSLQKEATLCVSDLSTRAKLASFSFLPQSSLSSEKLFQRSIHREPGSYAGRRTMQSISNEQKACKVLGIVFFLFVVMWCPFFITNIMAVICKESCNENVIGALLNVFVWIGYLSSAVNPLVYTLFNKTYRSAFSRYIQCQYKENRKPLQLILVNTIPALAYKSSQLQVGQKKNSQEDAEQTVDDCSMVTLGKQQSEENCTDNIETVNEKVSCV

SMILES	Ki [1, 4] [nM]	melting point [°C]	Ki [2, 5] [nM]	IC50 [3] [nM]	agonist or antagonist properties at the 5-HT1A receptor [3]	Ki [1, 6] [nM]	Emax [3] [%]	EC50 [3, 7] [nM]	Ki [2, 8] [nM]	EC50 ([3]; read-out: 5-HT1A Receptor Stimulation pEC50 (nM ± SEM) (converted)) [nM]
COc1ccccc1N1CCN(CCCCOc2cc3oc(=O)cc(C)c3cc2C(C)=O)CC1 [Compound 1, 6-Acetyl-7-{4-[4-(2-methoxyphenyl)piperazin-1-yl]butoxy}-4-methylchromen-2-one]	1420	126 to 127	5.75	301	antagonistic properties	–	–	–	–	–
COc1cccc(N2CCN(CCCCOc3cc4oc(=O)cc(C)c4cc3C(C)=O)CC2)c1 [Compound 2, 6-Acetyl-7-{4-[4-(3-methoxyphenyl)piperazin-1-yl]butoxy}-4-methylchromen-2-one]	1160	–	12.9	–	agonistic activity	1170	146 ± 1.1	181	–	–
CC(=O)c1cc2c(C)cc(=O)oc2cc1OCCCCN1CCN(c2ccccc2Br)CC1 [Compound 3, 6-Acetyl-7-{4-[4-(2-bromophenyl)piperazin-1-yl]butoxy}-4-methylchromen-2-one]	1020	121 to 122	1.96	5180	antagonistic properties	–	–	–	–	–
CC(=O)c1cc2c(C)cc(=O)oc2cc1OCCCCN1CCN(c2cccc(Br)c2)CC1 [Compound 4, 6-Acetyl-7-{4-[4-(3-bromophenyl)piperazin-1-yl]butoxy}-4-methylchromen-2-one]	1160	109 to 110	0.78	–	agonistic profile	–	176 ± 1.2	113	0.759	–
CC(=O)c1cc2c(C)cc(=O)oc2cc1OCCCCN1CCN(c2ccc(Br)cc2)CC1 [Compound 5, 6-Acetyl-7-{4-[4-(4-bromophenyl)piperazin-1-yl]butoxy}-4-methylchromen-2-one]	1350	145 to 146	1.4	63200	antagonistic properties	–	–	–	–	–
CC(=O)c1cc2c(C)cc(=O)oc2cc1OCCCCN1CCN(c2ccccc2F)CC1 [Compound 6, 6-Acetyl-7-{4-[4-(2-fluorophenyl)piperazin-1-yl]butoxy}-4-methylchromen-2-one]	1470	112 to 113	1.04	–	–	–	139 ± 1.1	101	1.07	102
CC(=O)c1cc2c(C)cc(=O)oc2cc1OCCCCN1CCN(c2ccccc2Cl)CC1 [Compound 7, 6-Acetyl-7-{4-[4-(2-chlorophenyl)piperazin-1-yl]butoxy}-4-methylchromen-2-one]	2080	132 to 133	0.57	–	strongest agonist	–	130 ± 1.4	49	0.55	–
CC(=O)c1cc2c(C)cc(=O)oc2cc1OCCCCN1CCN(c2ccccc2C#N)CC1 [Compound 8, 6-Acetyl-7-{4-[4-(2-cyanophenyl)piperazin-1-yl]butoxy}-4-methylchromen-2-one]	705	117 to 118	9.44	–	–	–	124 ± 1.1	59	–	–
CC(=O)c1cc2c(C)cc(=O)oc2cc1OCCCCN1CCN(c2cccc(Cl)c2Cl)CC1 [Compound 9, 6-Acetyl-7-{4-[4-(2,3-dichlorophenyl)piperazin-1-yl]butoxy}-4-methylchromen-2-one]	1290	111 to 112	6.3	–	–	1230	133 ± 1.3	149	–	–
CC(=O)c1cc2c(C)cc(=O)oc2cc1OCCCCN1CCN(c2cc(C)cc(C)c2)CC1 [Compound 10, 6-Acetyl-7-{4-[4-(3,5-dimethylphenyl)piperazin-1-yl]butoxy}-4-methylchromen-2-one]	–	101 to 102	22.4	–	–	513	139 ± 1.4	475	–	–
CC(=O)c1cc2c(C)cc(=O)oc2cc1OCCCCN1CCN(c2cc(C)ccc2C)CC1 [Compound 11, 6-Acetyl-7-{4-[4-(2,5-dimethylphenyl)piperazin-1-yl]butoxy}-4-methylchromen-2-one]	3710	130 to 131	174	21900	–	3980	–	–	–	–
CC(=O)c1cc2c(C)cc(=O)oc2cc1OCCCCN1CCN(c2ccc([N+](=O)[O-])cc2)CC1 [Compound 12, 6-Acetyl-7-{4-[4-(4-nitrophenyl)piperazin-1-yl]butoxy}-4-methylchromen-2-one]	1500	138 to 139	1800	53400	–	1550	–	–	1780	–
CC(=O)c1cc2c(C)cc(=O)oc2cc1OCCCCN1CCOCC1 [Compound 13, 6-Acetyl-7-[4-(morpholin-4-yl)butoxy]-4-methylchromen-2-one]	6390	115 to 116	9620	93400	–	–	–	–	–	–
CC(=O)c1cc2c(C)cc(=O)oc2cc1OCCCCN1CCN(c2ccncc2)CC1 [Compound 14]	3360	107 to 108	1660	25000	–	–	–	–	–	–
CC(=O)c1cc2c(C)cc(=O)oc2cc1OCCCCN1CCN(c2cnccn2)CC1 [Compound 15, 6-Acetyl-7-{4-[4-(pyrazin-2-yl)piperazin-1-yl]butoxy}-4-methylchromen-2-one]	6600	150 to 151	25	–	agonistic profile	–	170 ± 1.3	1300	–	–

Source: publication PMC9917830, “New Piperazine Derivatives of 6-Acetyl-7-hydroxy-4-methylcoumarin as 5-HT1A Receptor Agents” (International Journal of Molecular Sciences, 2023)
